Like-named read-outs stand apart in the source and are kept apart here.
Biological target: T1, SIRT1 (Homo sapiens, UniProt Q96EB6)
T1 sequence (Q96EB6 1-747): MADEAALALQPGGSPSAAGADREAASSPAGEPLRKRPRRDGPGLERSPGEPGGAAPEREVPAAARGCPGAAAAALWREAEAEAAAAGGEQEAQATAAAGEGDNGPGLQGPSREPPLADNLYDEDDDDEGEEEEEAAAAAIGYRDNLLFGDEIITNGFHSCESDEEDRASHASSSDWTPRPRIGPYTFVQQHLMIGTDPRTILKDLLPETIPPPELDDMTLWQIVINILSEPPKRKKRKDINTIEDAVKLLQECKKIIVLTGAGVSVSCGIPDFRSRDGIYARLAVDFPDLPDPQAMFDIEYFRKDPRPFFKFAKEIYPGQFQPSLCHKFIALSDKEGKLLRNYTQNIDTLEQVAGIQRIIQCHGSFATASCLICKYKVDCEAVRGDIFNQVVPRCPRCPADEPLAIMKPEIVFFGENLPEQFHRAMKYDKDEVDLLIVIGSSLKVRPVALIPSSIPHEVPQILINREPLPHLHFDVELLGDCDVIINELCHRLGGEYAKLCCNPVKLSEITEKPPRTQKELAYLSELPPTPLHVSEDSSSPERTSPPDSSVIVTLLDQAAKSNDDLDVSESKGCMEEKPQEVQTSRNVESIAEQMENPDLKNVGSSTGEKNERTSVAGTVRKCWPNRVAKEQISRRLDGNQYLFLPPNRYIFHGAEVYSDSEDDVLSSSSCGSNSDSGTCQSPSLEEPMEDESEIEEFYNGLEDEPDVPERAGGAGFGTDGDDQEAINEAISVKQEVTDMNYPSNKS
Assay: SIRT1 mass spectrometry (MS) based deacetylation assay; for FOLD ACT. MS: test concentration or dose not given here
Format: biochemical

[1] = SIRT1 activation, mass spectrometry assay, read-out: ED50 MS ASSAY
[2] = fold activation of SIRT1 as determined by MS

Structure (SMILES)	EC50 [1] [µM]	FOLD ACT. MS (fold activation of SIRT1, mass spectrometry assay)	FOLD ACT. MS [2]	EC50 [µM]
O=C(Nc1ccc2c(c1)OCO2)Nc1cccc(-c2nc3ncccc3o2)n1 [Compound 71]	5 to 50		B (B (Fold Activation <250%))	
COc1ccc(S(=O)(=O)Nc2cncc(-c3nc4ncccc4o3)c2)cc1OC [Compound 74]	> 150			
COc1cc(C(=O)Nc2cc(-c3nc4ncccc4o3)ccn2)cc(OC)c1OC [Compound 75]	5 to 50		B (B (Fold Activation <250%))	
CN(C)c1cccc(C(=O)Nc2cc(-c3nc4ncccc4o3)ccn2)c1 [Compound 76]	5 to 50		B (B (Fold Activation <250%))	
COc1ccc(C(=O)Nc2cc(-c3nc4ccccc4o3)ccn2)cc1OC [Compound 77]			B (B (Fold Activation <250%))	5 to 50
COc1ccc(C(=O)Nc2cccc(-c3csc(C)n3)c2)cc1OC [Compound 80]	5 to 50		B (B (Fold Activation <250%))	
COc1ccc(C(=O)Nc2cccc(-c3csc(C)n3)c2)c(OC)c1 [Compound 81]	5 to 50		B (B (Fold Activation <250%))	
COc1ccc(C(=O)Nc2cccc(-c3nnc(-c4ccccc4)o3)c2)c(OC)c1 [Compound 82]	101 to 150			
COc1cc(SC)ccc1C(=O)Nc1cccc(-c2nncn2C)c1 [Compound 83]	5 to 50		B (B (Fold Activation <250%))	
COc1ccc(C(=O)Nc2cccc(-c3csc(-c4ccccc4)n3)c2)cc1OC [Compound 84]	5 to 50		B (B (Fold Activation <250%))	
c1ccc2oc(N3CCCN(c4nc5ccccc5o4)CC3)nc2c1 [Compound 85]	> 150			
CN(C)c1ccc(NC(=O)Nc2cccc(-c3nc4ncccc4o3)n2)cc1 [Compound 87]	> 150			
COc1ccc(C(=O)N2CCCN(c3nc4ccccc4o3)CC2)c(OC)c1 [Compound 88]	> 150			
CC(C)(C)c1ccc(S(=O)(=O)Nc2ccccc2-c2nc3ncccc3o2)cc1 [Compound 98]	> 150			
O=C(NCc1ccc2c(c1)OCO2)c1cccc(-c2nc3ncccc3o2)c1 [Compound 103]	> 150			
COc1ccc(C(=O)Nc2cc(C(=O)N3CCNCC3)cc(-c3nc4ncccc4o3)c2)cc1OC [Compound 107, 3,4-dimethoxy-N-(3-(oxazolo[4,5-b]pyridin-2-yl)-5-(piperazine-1-carbonyl)phenyl)benzamide]	5 to 50		B (B (Fold Activation <250%))	
O=C(Nc1cccc(-c2nc3ncccc3o2)c1)c1ccccc1N1CCOCC1 [Compound 109]	5 to 50		B (B (Fold Activation <250%))	
CN(C)c1cccc(C(=O)Nc2cccc(-c3nc4cccnc4o3)c2)c1 [Compound 111]	5 to 50		B (B (Fold Activation <250%))	

Structure (SMILES)	EC50 [1] [µM]	FOLD ACT. MS (fold activation of SIRT1, mass spectrometry assay)	FOLD ACT. MS [2]	EC50 [µM]
COc1ccc(C(=O)Nc2cccc(-c3nc4cccnc4o3)c2)cc1OC [Compound 112]	5 to 50		B (B (Fold Activation <250%))	
CN(C)c1cccc(C(=O)Nc2cccc(-c3nc4ccncc4s3)c2)c1 [Compound 113]	5 to 50		B (B (Fold Activation <250%))	
COc1cc(C(=O)Nc2cccc(-c3nc4sccn4n3)c2)cc(OC)c1OC [Compound 118]	5 to 50		A (A (Fold activation >250%))	
COc1cccc(OC)c1C(=O)Nc1cccc(-c2nc3ccccc3o2)c1 [Compound 119]	5 to 50		B (B (Fold Activation <250%))	
COc1ccc(C(=O)Nc2cccc(-c3nc4ccccc4s3)c2)c(OC)c1 [Compound 124]	5 to 50		B (B (Fold Activation <250%))	
COc1cc(C(=O)Nc2cccc(-c3nc4ccccc4c(=O)o3)c2)cc(OC)c1OC [Compound 125]			B (B (Fold Activation <250%))	
COc1cccc(OC)c1C(=O)Nc1cccc(-c2nc3ccccc3[nH]2)c1 [Compound 126]	5 to 50		B (B (Fold Activation <250%))	
COc1ccc(C(=O)Nc2cccc(-c3cn4ccc(C)cc4n3)c2)c(OC)c1 [Compound 128]	5 to 50		B (B (Fold Activation <250%))	
COc1ccc(C(=O)Nc2cccc(-c3cn4ccc(C)cc4n3)c2)cc1 [Compound 130]	5 to 50		B (B (Fold Activation <250%))	
COc1cc(C(=O)Nc2cccc(-c3cn4cccc(C)c4n3)c2)cc(OC)c1OC [Compound 131]	5 to 50		A (A (Fold activation >250%))	
COc1ccccc1C(=O)Nc1cccc(-c2cn3ccsc3n2)c1 [Compound 132]	5 to 50		A (A (Fold activation >250%))	
COC(=O)c1cc(NC(=O)c2ccc(OC)c(OC)c2)cc(-c2nc3ncccc3o2)c1 [Compound 136, Methyl 3-(3,4-dimethoxybenzamido)-5-(oxazolo[4,5-b]pyridin-2-yl)benzoate]	> 150			
CN(C)c1cccc(C(=O)Nc2cc(C(=O)N3CCNCC3)cc(-c3nc4ncccc4o3)c2)c1 [Compound 138]	5 to 50		B (B (Fold Activation <250%))	
COc1ccc(C(=O)Nc2cc(C(=O)N3CCNCC3)cc(-c3nc4ncccc4o3)c2)c(OC)c1 [Compound 139]	5 to 50		B (B (Fold Activation <250%))	
COc1ccc(S(=O)(=O)Nc2ccccc2-c2nc3ccccc3[nH]2)cc1OC [Compound 143]	> 150			
COc1cc(C(=O)Nc2sccc2-c2nc3ccccc3s2)cc(OC)c1OC [Compound 144]	> 150			
S=C(Nc1ccc2c(c1)OCO2)Nc1cccc(-c2nc3ncccc3o2)n1 [Compound 147]	> 150			

Continued, in another order:

EC50 [1] [µM]	FOLD ACT. MS (fold activation of SIRT1, mass spectrometry assay)	FOLD ACT. MS [2]	Structure (SMILES)	EC50 [µM]
5 to 50	B (B (Fold Activation <250%))		COc1cc(C(=O)Nc2ccccc2-c2cccs2)cc(OC)c1OC [336 10]	
5 to 50		B (B (Fold Activation <250%))	O=C(Nc1cccc(-c2nc3ncccc3o2)c1)c1ccccc1 [Compound 56]	
5 to 50			COc1cc(C(=O)Nc2cccc(-c3nc4ncccc4o3)n2)cc(OC)c1OC [Compound 57]	
5 to 50			COc1ccc(S(=O)(=O)Nc2cccc(-c3nc4ncccc4o3)n2)cc1OC [Compound 60]	
5 to 50			COc1ccc(C(=O)Nc2cc(-c3nc4ncccc4o3)ccn2)cc1OC [Compound 63]	
5 to 50			CN(C)c1cccc(C(=O)Nc2cccc(-c3nc4ncccc4o3)n2)c1 [Compound 64]	
5 to 50			COc1cc(C(=O)Nc2cncc(-c3nc4ncccc4o3)c2)cc(OC)c1OC [Compound 66]	
5 to 50			COc1ccc(C(=O)Nc2cncc(-c3nc4ncccc4o3)c2)cc1OC [Compound 67]	
5 to 50			CN(C)c1cccc(C(=O)Nc2cncc(-c3nc4ncccc4o3)c2)c1 [Compound 68]	
5 to 50		B (B (Fold Activation <250%))	COc1ccc(C(=O)Nc2cccc(-c3nc4ncccc4o3)n2)c(OC)c1 [Compound 69]	
5 to 50		B (B (Fold Activation <250%))	CN(C)c1ccc(C(=O)Nc2cccc(-c3nc4ncccc4o3)n2)cc1 [Compound 70]	
< 5		B (B (Fold Activation <250%))	c1cc(Nc2nc3ccccc3s2)cc(-c2nc3ncccc3o2)c1 [Compound 95]	
< 5		B (B (Fold Activation <250%))	COc1ccc(C(=O)Nc2ccccc2-c2nc3ncccc3o2)cc1OC [Compound 96]	
< 5		A (A (Fold activation >250%))	COc1ccc(C(=O)Nc2cccc(-c3nc4ccncc4s3)c2)cc1OC [Compound 114]	
< 5		A (A (Fold activation >250%))	COc1cc(C(=O)Nc2cccc(-c3cn4ccc(C)cc4n3)c2)cc(OC)c1OC [Compound 129]	
< 5		B (B (Fold Activation <250%))	COC(=O)c1cc(NC(=O)c2cc(OC)c(OC)c(OC)c2)cc(-c2nc3ccncc3s2)c1 [Compound 133, methyl 3-(thiazolo[5,4-c]pyridin-2-yl)-5-(3,4,5-trimethoxybenzamido)benzoate]	
< 5		B (B (Fold Activation <250%))	COc1cc(C(=O)Nc2cc(C(=O)O)cc(-c3nc4ccncc4s3)c2)cc(OC)c1OC [Compound 134, 3-(thiazolo[5,4-c]pyridin-2-yl)-5-(3,4,5-trimethoxybenzamido)benzoic acid]	
< 5		B (B (Fold Activation <250%))	COc1cc(OC)cc(C(=O)Nc2ccccc2-c2nc3ccccc3[nH]2)c1 [Compound 141]	
< 5		A (A (Fold activation >250%))	COc1ccc(C(=O)Nc2ccccc2-c2nc3ccccc3[nH]2)cc1OC [Compound 142]	
< 5		B (B (Fold Activation <250%))	COc1ccc(C(=O)Nc2sccc2-c2nc3ccccc3s2)cc1OC [Compound 145]	
< 5		B (B (Fold Activation <250%))	COc1cc(OC)cc(C(=O)Nc2sccc2-c2nc3ccccc3s2)c1 [Compound 146]	

From patent publication US8044198B2, “Sirtuin modulating compounds” (Sirtris Pharmaceuticals, Inc., priority 2005, dated 2011)
